# Results taken from PMC5791972 (PLoS ONE, 2018).
# Like-named read-outs stand apart in the source and are kept apart here.
# Columns and labels:
# β2 (h) = β2 (h) (Homo sapiens, UniProt P07550); format: binding; settings: 1.0E-06 M
# kainate = format: binding, rat; settings: 1.0E-06 M
# MCH1 (h) = biological target: T1, MCH1 (h) (Homo sapiens, UniProt Q99705); format: binding; settings: 1.0E-06 M
# T1 construct: host or cells: CHO cells
# UT (h) = biological target: T2, UT (h) (Homo sapiens, UniProt Q9UKP6); format: binding
# T2 construct: host or cells: CHO cells
# T2 sequence (Q9UKP6 1-389): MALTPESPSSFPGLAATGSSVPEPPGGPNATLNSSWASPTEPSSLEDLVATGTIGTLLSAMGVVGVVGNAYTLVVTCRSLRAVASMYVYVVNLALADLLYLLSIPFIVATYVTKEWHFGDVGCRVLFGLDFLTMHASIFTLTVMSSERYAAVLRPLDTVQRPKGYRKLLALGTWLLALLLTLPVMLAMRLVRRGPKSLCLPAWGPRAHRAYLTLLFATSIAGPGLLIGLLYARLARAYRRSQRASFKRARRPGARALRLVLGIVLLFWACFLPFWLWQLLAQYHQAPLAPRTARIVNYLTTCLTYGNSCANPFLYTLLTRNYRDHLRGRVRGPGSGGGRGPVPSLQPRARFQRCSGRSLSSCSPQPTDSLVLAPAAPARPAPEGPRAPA
# VPAC1 (VIP1) (h) = biological target: T3, VPAC1 (VIP1) (h) (Homo sapiens, UniProt P32241); format: binding; settings: 1.0E-06 M
# T3 construct: host or cells: CHO cells
# T3 sequence (P32241 31-457): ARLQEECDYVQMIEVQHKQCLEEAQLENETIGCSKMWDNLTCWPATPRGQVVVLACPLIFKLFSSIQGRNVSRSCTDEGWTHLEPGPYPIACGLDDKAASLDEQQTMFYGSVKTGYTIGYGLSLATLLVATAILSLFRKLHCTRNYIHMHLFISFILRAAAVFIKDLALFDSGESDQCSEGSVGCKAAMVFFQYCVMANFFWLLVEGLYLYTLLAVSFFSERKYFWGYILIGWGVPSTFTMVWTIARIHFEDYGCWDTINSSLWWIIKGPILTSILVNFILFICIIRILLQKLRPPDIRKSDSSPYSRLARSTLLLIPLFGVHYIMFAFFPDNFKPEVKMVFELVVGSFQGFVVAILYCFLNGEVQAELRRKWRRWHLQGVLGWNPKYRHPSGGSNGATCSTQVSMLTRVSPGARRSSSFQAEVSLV
# PDE3A (h) = PDE3A (h) (Homo sapiens, UniProt Q14432); assay: biochemical; settings: 1.0E-06 M
# Abl kinase (h) = Abl kinase (h) (Homo sapiens, UniProt P00519); assay: biochemical; settings: 1.0E-06 M
# 5-HT1B = 5-HT1B (Rattus norvegicus, UniProt P28564); assay: biochemical
# 5-HT6 (h) = 5-HT6 (h) (Homo sapiens, UniProt P50406); assay: biochemical
# tyrosine hydroxylase = biological target: T4, tyrosine hydroxylase (Rattus norvegicus, UniProt P04177); assay: enzyme assay; format: biochemical; settings: 1.0E-06 M
# T4 construct: rat striatum; from tissue; host or cells: rat striatum
# T4 sequence (P04177 whole entry): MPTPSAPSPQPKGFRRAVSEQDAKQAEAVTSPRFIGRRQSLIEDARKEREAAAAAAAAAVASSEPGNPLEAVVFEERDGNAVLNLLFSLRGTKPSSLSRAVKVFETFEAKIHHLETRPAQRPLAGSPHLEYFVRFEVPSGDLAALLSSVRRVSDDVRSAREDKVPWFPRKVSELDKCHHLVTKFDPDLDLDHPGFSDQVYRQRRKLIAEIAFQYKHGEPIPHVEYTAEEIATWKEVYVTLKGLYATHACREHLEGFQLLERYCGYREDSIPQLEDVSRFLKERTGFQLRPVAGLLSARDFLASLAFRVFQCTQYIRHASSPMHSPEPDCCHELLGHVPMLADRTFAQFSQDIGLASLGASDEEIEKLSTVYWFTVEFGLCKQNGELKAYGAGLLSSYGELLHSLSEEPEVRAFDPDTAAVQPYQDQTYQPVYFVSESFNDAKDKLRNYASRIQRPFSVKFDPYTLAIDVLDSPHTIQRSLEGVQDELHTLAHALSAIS
# Abl kinase (h), sequence (P00519 whole entry): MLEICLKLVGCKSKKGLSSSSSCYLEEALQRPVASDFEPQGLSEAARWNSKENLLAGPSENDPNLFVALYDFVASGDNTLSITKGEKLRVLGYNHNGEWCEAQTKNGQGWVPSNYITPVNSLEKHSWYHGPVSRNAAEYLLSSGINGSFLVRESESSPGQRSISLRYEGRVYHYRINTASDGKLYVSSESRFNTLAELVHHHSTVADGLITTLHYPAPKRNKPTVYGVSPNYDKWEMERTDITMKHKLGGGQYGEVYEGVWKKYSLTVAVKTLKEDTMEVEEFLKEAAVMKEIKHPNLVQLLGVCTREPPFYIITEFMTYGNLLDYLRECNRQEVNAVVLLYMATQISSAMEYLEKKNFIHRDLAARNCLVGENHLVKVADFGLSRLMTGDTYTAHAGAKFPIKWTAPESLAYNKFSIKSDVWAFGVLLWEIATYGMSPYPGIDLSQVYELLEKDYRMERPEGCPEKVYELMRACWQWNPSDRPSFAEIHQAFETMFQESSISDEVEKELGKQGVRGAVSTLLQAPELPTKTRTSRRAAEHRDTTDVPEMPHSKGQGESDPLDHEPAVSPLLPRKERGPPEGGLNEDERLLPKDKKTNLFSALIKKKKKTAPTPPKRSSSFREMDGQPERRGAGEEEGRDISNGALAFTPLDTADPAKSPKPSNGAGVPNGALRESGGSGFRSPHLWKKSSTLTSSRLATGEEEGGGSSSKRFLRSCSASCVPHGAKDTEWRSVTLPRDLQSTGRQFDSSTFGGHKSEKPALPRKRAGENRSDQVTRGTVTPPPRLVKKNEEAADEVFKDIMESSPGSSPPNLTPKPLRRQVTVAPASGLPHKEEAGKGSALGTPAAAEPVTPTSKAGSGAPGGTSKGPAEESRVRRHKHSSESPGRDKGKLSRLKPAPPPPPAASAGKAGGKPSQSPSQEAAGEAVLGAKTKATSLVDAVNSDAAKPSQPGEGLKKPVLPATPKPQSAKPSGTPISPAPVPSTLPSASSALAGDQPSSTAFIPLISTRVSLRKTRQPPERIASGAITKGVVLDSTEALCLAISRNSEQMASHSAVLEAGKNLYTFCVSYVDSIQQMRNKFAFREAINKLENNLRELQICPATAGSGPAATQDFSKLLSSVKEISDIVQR
# β2 (h), sequence (P07550 whole entry): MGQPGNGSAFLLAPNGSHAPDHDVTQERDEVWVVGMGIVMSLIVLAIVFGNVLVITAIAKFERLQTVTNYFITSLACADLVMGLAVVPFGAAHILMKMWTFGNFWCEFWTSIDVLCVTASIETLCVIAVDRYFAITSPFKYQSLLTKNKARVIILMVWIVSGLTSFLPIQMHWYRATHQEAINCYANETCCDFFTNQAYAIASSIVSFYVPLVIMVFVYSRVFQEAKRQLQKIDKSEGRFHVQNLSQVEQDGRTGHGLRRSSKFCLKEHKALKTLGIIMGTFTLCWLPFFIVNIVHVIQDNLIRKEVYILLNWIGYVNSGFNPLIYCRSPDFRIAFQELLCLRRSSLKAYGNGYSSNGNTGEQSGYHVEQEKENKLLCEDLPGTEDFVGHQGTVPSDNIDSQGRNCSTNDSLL
# 5-HT6 (h), sequence (P50406 whole entry): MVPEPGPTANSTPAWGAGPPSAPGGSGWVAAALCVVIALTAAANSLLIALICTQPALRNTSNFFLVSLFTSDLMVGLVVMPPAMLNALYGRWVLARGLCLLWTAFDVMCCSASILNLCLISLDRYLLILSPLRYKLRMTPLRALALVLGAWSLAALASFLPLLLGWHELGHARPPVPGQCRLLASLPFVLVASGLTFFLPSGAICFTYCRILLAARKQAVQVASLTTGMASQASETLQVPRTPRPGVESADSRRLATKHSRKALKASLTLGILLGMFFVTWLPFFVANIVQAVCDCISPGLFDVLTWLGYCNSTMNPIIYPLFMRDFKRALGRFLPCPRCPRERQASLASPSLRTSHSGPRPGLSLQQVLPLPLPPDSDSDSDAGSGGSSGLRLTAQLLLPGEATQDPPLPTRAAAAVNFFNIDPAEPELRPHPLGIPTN
# 5-HT1B, sequence (P28564 whole entry): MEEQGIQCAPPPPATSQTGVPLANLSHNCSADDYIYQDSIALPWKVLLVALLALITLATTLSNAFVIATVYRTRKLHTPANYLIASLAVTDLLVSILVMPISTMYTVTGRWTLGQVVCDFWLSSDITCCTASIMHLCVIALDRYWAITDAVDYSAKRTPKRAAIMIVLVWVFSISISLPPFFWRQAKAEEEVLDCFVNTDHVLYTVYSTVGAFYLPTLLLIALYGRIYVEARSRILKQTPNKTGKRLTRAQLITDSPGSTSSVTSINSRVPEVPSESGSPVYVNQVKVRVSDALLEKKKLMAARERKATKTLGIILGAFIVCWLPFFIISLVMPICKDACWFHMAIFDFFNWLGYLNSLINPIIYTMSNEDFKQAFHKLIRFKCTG
# PDE3A (h), sequence (Q14432 whole entry): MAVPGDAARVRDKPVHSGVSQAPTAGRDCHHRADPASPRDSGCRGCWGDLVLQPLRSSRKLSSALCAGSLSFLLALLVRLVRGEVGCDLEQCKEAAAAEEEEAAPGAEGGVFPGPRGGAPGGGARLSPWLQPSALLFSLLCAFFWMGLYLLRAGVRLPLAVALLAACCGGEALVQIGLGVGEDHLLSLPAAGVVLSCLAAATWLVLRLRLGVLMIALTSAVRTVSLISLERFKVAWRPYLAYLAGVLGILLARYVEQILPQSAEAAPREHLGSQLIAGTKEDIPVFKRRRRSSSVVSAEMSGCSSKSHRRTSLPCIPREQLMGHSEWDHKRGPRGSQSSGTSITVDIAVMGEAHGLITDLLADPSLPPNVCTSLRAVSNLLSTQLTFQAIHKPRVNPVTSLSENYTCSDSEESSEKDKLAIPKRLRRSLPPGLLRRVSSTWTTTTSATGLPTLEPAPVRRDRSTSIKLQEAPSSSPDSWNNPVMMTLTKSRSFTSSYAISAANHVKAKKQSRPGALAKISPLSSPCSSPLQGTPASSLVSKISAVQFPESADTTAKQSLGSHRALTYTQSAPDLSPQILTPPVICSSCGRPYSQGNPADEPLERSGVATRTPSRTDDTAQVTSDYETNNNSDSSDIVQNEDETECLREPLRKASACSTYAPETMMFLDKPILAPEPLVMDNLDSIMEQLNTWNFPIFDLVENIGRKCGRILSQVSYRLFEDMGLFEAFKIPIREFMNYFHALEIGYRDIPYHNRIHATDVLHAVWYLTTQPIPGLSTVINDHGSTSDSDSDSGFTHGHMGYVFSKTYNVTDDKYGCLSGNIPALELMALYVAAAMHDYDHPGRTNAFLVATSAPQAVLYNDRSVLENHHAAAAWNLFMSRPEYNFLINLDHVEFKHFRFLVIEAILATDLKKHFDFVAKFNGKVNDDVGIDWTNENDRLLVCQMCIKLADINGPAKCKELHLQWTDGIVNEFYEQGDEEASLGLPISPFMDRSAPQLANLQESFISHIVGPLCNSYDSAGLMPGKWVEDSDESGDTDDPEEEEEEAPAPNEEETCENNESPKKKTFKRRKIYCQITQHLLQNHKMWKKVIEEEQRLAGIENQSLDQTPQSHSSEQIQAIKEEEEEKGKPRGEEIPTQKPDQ
# T1 sequence (Q99705 whole entry): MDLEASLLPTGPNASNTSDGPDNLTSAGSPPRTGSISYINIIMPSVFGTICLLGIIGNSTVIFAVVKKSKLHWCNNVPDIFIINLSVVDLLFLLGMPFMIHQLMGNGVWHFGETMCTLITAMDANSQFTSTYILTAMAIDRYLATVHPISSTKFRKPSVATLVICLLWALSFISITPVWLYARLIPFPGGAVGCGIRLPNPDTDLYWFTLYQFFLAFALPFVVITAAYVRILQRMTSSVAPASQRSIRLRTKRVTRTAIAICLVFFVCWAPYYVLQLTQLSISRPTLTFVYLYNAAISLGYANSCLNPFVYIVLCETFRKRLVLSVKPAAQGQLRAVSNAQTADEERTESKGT
smiles,measurement,setting,value
Cn1c(=O)n(CCCO)c(=O)c2c1nc(Oc1cccc(OC(F)(F)F)c1)n2Cc1ccc(Cl)cc1 [HC-608],inhibition at 1 µM,β2 (h); read-out: % Inhibition 1st,-1.9%
same,inhibition at 1 µM,β2 (h); read-out: % Inhibition 2nd,0.5%
same,inhibition at 1 µM,β2 (h); read-out: % Inhibition Mean,-0.7%
same,% Inhibition 1st,kainate,5.9%
same,% Inhibition 2nd,kainate,5.3%
same,% Inhibition Mean,kainate,5.6%
same,inhibition at 1 µM,MCH1 (h); read-out: % Inhibition 1st,7.9%
same,inhibition at 1 µM,MCH1 (h); read-out: % Inhibition 2nd,-27.2%
same,inhibition at 1 µM,MCH1 (h); read-out: % Inhibition Mean,-9.6%
same,inhibition at 1 µM,"UT (h); 1.0E-06 M, read-out: % Inhibition 2nd",7%
same,inhibition at 1 µM,"UT (h); 1.0E-06 M, read-out: % Inhibition Mean",9.3%
same,inhibition at 1 µM,UT (h); read-out: % Inhibition 1st,11.5%
same,inhibition at 1 µM,VPAC1 (VIP1) (h); read-out: % Inhibition 1st,-9%
same,inhibition at 1 µM,VPAC1 (VIP1) (h); read-out: % Inhibition 2nd,-8.4%
same,inhibition at 1 µM,VPAC1 (VIP1) (h); read-out: % Inhibition Mean,-8.7%
same,inhibition at 1 µM,PDE3A (h); read-out: % Inhibition 1st,3.1%
same,inhibition at 1 µM,PDE3A (h); read-out: % Inhibition 2nd,0.2%
same,inhibition at 1 µM,PDE3A (h); read-out: % Inhibition Mean,1.7%
same,inhibition at 1 µM,Abl kinase (h); read-out: % Inhibition 1st,11.4%
same,inhibition at 1 µM,Abl kinase (h); read-out: % Inhibition 2nd,10.2%
same,inhibition at 1 µM,Abl kinase (h); read-out: % Inhibition Mean,10.8%
same,inhibition at 1 µM,5-HT1B; read-out: % Inhibition 1st,-11%
same,inhibition at 1 µM,5-HT1B; read-out: % Inhibition 2nd,-9.4%
same,inhibition at 1 µM,5-HT1B; read-out: % Inhibition Mean,-10.2%
same,inhibition at 1 µM,5-HT6 (h); read-out: % Inhibition 1st,-5.1%
same,inhibition at 1 µM,5-HT6 (h); read-out: % Inhibition 2nd,7.3%
same,inhibition at 1 µM,5-HT6 (h); read-out: % Inhibition Mean,1.1%
Cn1c(=O)n(CCCO)c(=O)c2c1nc(Oc1cccc(Cl)c1)n2Cc1ccc(Cl)cc1 [HC-070],inhibition at 1 µM,tyrosine hydroxylase; read-out: % Inhibition 1st,-27.2%
same,inhibition at 1 µM,tyrosine hydroxylase; read-out: % Inhibition Mean,-23%
